Results published in patent publication US20260200919A1, “SUBSTITUTED AMINOPYRIDINE COMPOUNDS AND METHODS OF TREATING DISEASE USING SAME” (Atavistik Bio, Inc., priority 2023, published 2026).

Columns and labels:
[1] = biological target: T1, human recombinant kinase full-length wildtype AKT1 (Homo sapiens, UniProt P31749); assay: AKT1 kinase assay (wildtype, TR-FRET, Lance); type: biochemical; details: 0.6 nM wildtype AKT1, 50 nM Ulight-CREBtide, either 50 μM ATP or 2 mM ATP (not specified which), 60 min at RT
T1 construct: Purified human recombinant kinase full-length wildtype AKT1 was expressed in insect cells; made in house; host or cells: insect cells
T1 sequence (P31749 whole entry): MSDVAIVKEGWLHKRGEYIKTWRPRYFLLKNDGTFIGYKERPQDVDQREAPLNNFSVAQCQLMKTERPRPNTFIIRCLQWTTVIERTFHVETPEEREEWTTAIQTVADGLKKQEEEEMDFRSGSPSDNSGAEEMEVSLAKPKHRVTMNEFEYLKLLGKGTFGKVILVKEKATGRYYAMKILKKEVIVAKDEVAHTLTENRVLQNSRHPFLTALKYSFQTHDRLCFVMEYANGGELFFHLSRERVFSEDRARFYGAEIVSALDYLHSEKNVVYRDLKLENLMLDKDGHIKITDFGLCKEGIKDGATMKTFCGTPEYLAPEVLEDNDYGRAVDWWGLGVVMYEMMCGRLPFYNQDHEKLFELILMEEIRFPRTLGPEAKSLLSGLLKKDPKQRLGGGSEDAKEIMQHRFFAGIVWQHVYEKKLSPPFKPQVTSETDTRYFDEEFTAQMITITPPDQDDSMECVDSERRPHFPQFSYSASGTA
In short: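 Insect-cell-expressed AKT1, activated in vitro by PDPK1, was used at 0.6 nM with 50 nM Ulight-CREBtide and 50 μM or 2 mM ATP in 50 mM HEPES pH 7.5, 1% DMSO, over a 10-point dose response.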

[2] = biological target: T2, human recombinant kinase full-length AKT1 E17K (Homo sapiens, UniProt P31749, E17K); assay: AKT1 E17K kinase assay (TR-FRET, Lance); type: biochemical; details: 0.6 nM AKT1 E17K, 50 nM Ulight-CREBtide, either 50 μM ATP or 2 mM ATP (not specified which), 60 min at RT
T2 construct: Purified human recombinant kinase full-length AKT1 E17K was expressed in insect cells; made in house; host or cells: insect cells
T2 sequence (P31749 whole entry E17K): as the sequence (P31749 whole entry) above, with E17K counted along it
In short: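 Full-length human AKT1 E17K (insect cell-expressed, PDPK1-activated; 0.6 nM) with 50 nM ULight-CREBtide in HEPES pH 7.5 with MgCl2 and DTT. ATP at 50 μM or 2 mM, 1% DMSO, 10-point dose response, 60 min at RT.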

SMILES	IC50 [1]	IC50 [2]
Nc1ncccc1-c1nc2ccc(-c3ccccc3)nc2n1-c1ccc(C2CN(Cc3ccc(C(=O)O)cc3)C2)nc1 [Compound 168, 4-[[3-[5-[2-(2-amino-3-pyridyl)-5-phenyl-imidazo[4,5-b]pyridin-3-yl]-2-pyridyl]azetidin-1-yl]methyl]benzoic acid]	< 0.5 µM	> 0.5 µM
CC(c1ccc(C(=O)O)cc1)N1CCC(c2ccc(-n3c(-c4cccnc4N)nc4ccc(-c5ccccc5)nc43)cc2)CC1 (stereo not drawn) [Compound 169, 4-(1-(4-(4-(2-(2-aminopyridin-3-yl)-5-phenyl-3H-imidazo[4,5-b]pyridin-3-yl)phenyl)piperidin-1-yl)ethyl)benzoic acid]	< 0.5 µM	0.2 to 0.5 µM
CC(c1ccc(C(=O)O)cc1)N1CCCC(c2ccc(-n3c(-c4cccnc4N)nc4ccc(-c5ccccc5)nc43)cc2)C1 (stereo not drawn) [Compound 170, 4-(1-(3-(4-(2-(2-aminopyridin-3-yl)-5-phenyl-3H-imidazo[4,5-b]pyridin-3-yl)phenyl)piperidin-1-yl)ethyl)benzoic acid]	< 0.5 µM	> 0.5 µM
CC(c1ccc(C(=O)O)cc1)N1CCC(c2ccc(-n3c(-c4cccnc4N)nc4ccc(-c5ccccc5)nc43)cc2)C1 (stereo not drawn) [Compound 171, 4-(1-(3-(4-(2-(2-aminopyridin-3-yl)-5-phenyl-3H-imidazo[4,5-b]pyridin-3-yl)phenyl)pyrrolidin-1-yl)ethyl)benzoic acid]	< 0.5 µM	0.2 to 0.5 µM
CC(C)c1ccc2nc(-c3cccnc3N)n(-c3ccc(NC(=O)c4ccc(C(=O)O)cc4)nc3)c2c1 [Compound 172, 4-((5-(2-(2-aminopyridin-3-yl)-6-isopropyl-1H-benzo[d]imidazol-1-yl)pyridin-2-yl)carbamoyl)benzoic acid]	< 0.5 µM	> 0.5 µM
CC(C)c1ccc2nc(-c3cccnc3N)n(-c3ccc(C4CN(Cc5ccc(C(=O)O)cc5)C4)cc3)c2n1 [Compound 173, 4-((3-(4-(2-(2-aminopyridin-3-yl)-5-isopropyl-3H-imidazo[4,5-b]pyridin-3-yl)phenyl)azetidin-1-yl)methyl)benzoic acid]	< 0.5 µM	> 0.5 µM
CC(C)(C)c1ccc2nc(-c3cccnc3N)n(-c3ccc(NC(=O)c4ccc(C(=O)O)cc4)nc3)c2c1 [Compound 174, 4-((5-(2-(2-aminopyridin-3-yl)-6-(tert-butyl)-1H-benzo[d]imidazol-1-yl)pyridin-2-yl)carbamoyl)benzoic acid]	> 0.5 µM	> 0.5 µM
Nc1ncccc1-c1nc2ccc(OC(F)(F)F)cc2n1-c1ccc(NC(=O)c2ccc(C(=O)O)cc2)nc1 [Compound 175, 4-((5-(2-(2-aminopyridin-3-yl)-6-(trifluoromethoxy)-1H-benzo[d]imidazol-1-yl)pyridin-2-yl)carbamoyl)benzoic acid]	> 0.5 µM	> 0.5 µM
CC(C)Oc1ccc2nc(-c3cccnc3N)n(-c3ccc(NC(=O)c4ccc(C(=O)O)cc4)nc3)c2c1 [Compound 176, 4-[[5-[2-(2-amino-3-pyridyl)-6-isopropoxy-benzimidazol-1-yl]-2-pyridyl]carbamoyl]benzoic acid]	> 0.5 µM	> 0.5 µM
Cc1cc(NC(=O)c2ccc(-n3c(-c4cccnc4N)nc4ccc(-c5ccccc5)nc43)cn2)ccc1C(=O)O [Compound 177, 4-(5-(2-(2-aminopyridin-3-yl)-5-phenyl-3H-imidazo[4,5-b]pyridin-3-yl)picolinamido)-2-methylbenzoic acid]	< 0.5 µM	0.2 to 0.5 µM
Cc1cc(C(=O)O)ccc1NC(=O)c1ccc(-n2c(-c3cccnc3N)nc3ccc(-c4ccccc4)nc32)cn1 [Compound 178, 4-(5-(2-(2-aminopyridin-3-yl)-5-phenyl-3H-imidazo[4,5-b]pyridin-3-yl)picolinamido)-3-methylbenzoic acid]	< 0.5 µM	> 0.5 µM
Nc1ncccc1-c1nc2ccc(-c3ccccc3)nc2n1-c1ccc(C(=O)Nc2ccc(C(=O)O)cc2F)nc1 [Compound 179, 4-(5-(2-(2-aminopyridin-3-yl)-5-phenyl-3H-imidazo[4,5-b]pyridin-3-yl)picolinamido)-3-fluorobenzoic acid]	< 0.5 µM	0.2 to 0.5 µM
Nc1ncccc1-c1nc2ccc(-c3ccccc3)nc2n1-c1ccc(C(=O)Nc2ccc(C(=O)O)cc2F)cc1 [Compound 180, 4-(4-(2-(2-aminopyridin-3-yl)-5-phenyl-3H-imidazo[4,5-b]pyridin-3-yl)benzamido)-3-fluorobenzoic acid]	< 0.5 µM	< 0.05 µM
Cc1cc(C(=O)Nc2ccc(-n3c(-c4cccnc4N)nc4ccc(-c5ccccc5)nc43)nc2C)ccc1C(=O)O [Compound 181, 4-((6-(2-(2-aminopyridin-3-yl)-5-phenyl-3H-imidazo[4,5-b]pyridin-3-yl)-2-methylpyridin-3-yl)carbamoyl)-2-methylbenzoic acid]	> 0.5 µM	> 0.5 µM
Cc1nc(NC(=O)c2ccc(C(=O)O)cc2)ccc1-n1c(-c2cccnc2N)nc2ccc(-c3ccccc3)cc21 [Compound 182, 4-((5-(2-(2-aminopyridin-3-yl)-6-phenyl-1H-benzo[d]imidazol-1-yl)-6-methylpyridin-2-yl)carbamoyl)benzoic acid]	< 0.5 µM	> 0.5 µM
Nc1ncccc1-c1nc2ccc(-c3ccccc3)nc2n1-c1ccc(C2CN(Cc3ccc(C(=O)O)cc3)C2)cc1 [Compound 183, 4-((3-(4-(2-(2-aminopyridin-3-yl)-5-phenyl-3H-imidazo[4,5-b]pyridin-3-yl)phenyl)azetidin-1-yl)methyl)benzoic acid]	< 0.5 µM	0.05 to 0.2 µM
COc1cc(CN2CC(c3ccc(-n4c(-c5cccnc5N)nc5ccc(-c6ccccc6)nc54)cc3)C2)ccc1C(=O)O [Compound 184, 4-((3-(4-(2-(2-aminopyridin-3-yl)-5-phenyl-3H-imidazo[4,5-b]pyridin-3-yl)phenyl)azetidin-1-yl)methyl)-2-methoxybenzoic acid]	< 0.5 µM	< 0.05 µM
Nc1ncccc1-c1nc2ccc(-c3ccccc3)nc2n1-c1ccc(C2CN(Cc3cc(O)c(C(=O)O)c(F)c3)C2)cc1 [Compound 185, 4-((3-(4-(2-(2-aminopyridin-3-yl)-5-phenyl-3H-imidazo[4,5-b]pyridin-3-yl)phenyl)azetidin-1-yl)methyl)-2-fluoro-6-hydroxybenzoic acid]	< 0.5 µM	< 0.05 µM
